In US12533315B2, “Compositions comprising at least one ionic liquid, a polypeptide, and at least one non-ionic surfactant for protein delivery” (PRESIDENT AND FELLOWS OF HARVARD COLLEGE, priority 2019, dated 2026):
Entries after “also recorded” stand apart in the source; their conditions may differ.

How the values were obtained:
[1] = test system: Fab (antihistone H1 antibody fragment; antigen KLH-SSV peptide); test: Deactivation-preventing effect of polysorbates on Fab in CAGE (1:2) (ELISA); assay type: biochemical; details: for Fab deactivation-preventing effect, qualitative comparison of polysorbates: 30% and 40% CAGE (1:2), 3% to 10% polysorbate (FIGS. 7A, 7B)
Description: Preparation of the Fab-CAGE (1:2)-polysorbate mixed solutions. […] Unlike other polysorbates, polysorbate 60 only is solid at room temperature.
The dialysate was replaced appropriately during the dialysis.
Each experiment was conducted in triplicate.

[2] = test system: porcine skin; test: Porcine skin penetrability test of FITC-labeled Fab, confocal fluorescence microscopy; details: for impact on skin penetration of Fab: 3% polysorbate added to CAGE (1:2); for skin penetration of Fab: 3% polysorbate alone, without CAGE
Description: (§1) Preparation of FITC-labeled Fab. The Pierce™ FITC Antibody-Labeling Kit (ThermoFisher Scientific) was used to label Fab purchased from Chemical & Scientific Corporation with FITC. Briefly, 925 μL of sterilized water were added into 75 μL of 0.67 M borate buffer that had been attached to the kit, and the labeling buffer (50 mM sodium borate, pH 8.5) was prepared. Lyophilized Fab, 1 mg, was added into 0.5 mL of the labeling buffer and was then melted. The Fab solution, 0.5 mL, was added into the FITC reagent vial that had been attached to the kit and was then pipetted 10 times for the complete melting of the pigment. After the collection of the slightly centrifuged sample solution in the vial's bottom, the reaction was incubated at room temperature for 60 minutes and under light blocking. At 60 minutes later, the column containing the reaction solution was set to the recovery column that had been attached to the kit. Subsequently, 400 μL of the homogeneously suspended purification column suspension solution were added. After centrifugation (about 1,000 μg, 30 to 45 seconds), FITC-labeled Fab was recovered. The amount of antibody labeling was calculated by measuring absorbance at 280 nm and 495 nm according to the following formulae:
(§2) Preparation of the FITC-labeled Fab-CAGE sample solution. The FITC-Fab solution (50 mM sodium borate, pH 8.5) was mixed with 6 CAGE variants at a volume ratio of 50%/50% (v/v %). Regarding CAGE (1:2), the FITC-Fab solution was mixed at volume ratios of 50%/50% (v/v %), 40%/60% (v/v %), and 30%/70% (v/v %). The mixed solutions were allowed to stand at room temperature for 1 hour. Subsequently, 300 μL of the mixed solutions obtained were used for the porcine skin penetrability test.
(§3) Preparation of the FITC-labeled Fab-CAGE-polysorbate sample solutions. Polysorbates 40 and 60 were mixed with the FITC-labeled Fab solution (50 mM sodium borate, pH 8.5) to obtain the final concentration of 3%. Subsequently, the resulting solutions were mixed with CAGE (1:2) at the volume ratios of 30%/70% (v/v %) [=30% CAGE (1:2)] or 40%/60% (v/v %) [=40% CAGE (1:2)]. Because of its nature of being solid at room temperature, polysorbate 60 was dissolved by 30-minute warming at 37° C. prior to the addition. Furthermore, the solution was warmed for 10 minutes at 37° C. to completely dissolve polysorbate 60 and was then mixed with CAGE (1:2). The resulting mixed solutions were allowed to stand at room temperature for 1 hour. The final concentration of antibodies was adjusted to 10 μg/mL.
(§4) Preparation of the porcine skin. In the porcine skin penetrability test, the cryopreserved skin of a WSP was unfrozen at room temperature. A pair of scissors were used to remove hair on the skin surface, followed by washing of the skin surface with PBS. The WSP skin, with the epidermis side upward, was set to the receiver chamber of a longitudinal diffusion cell (diffusion area: 1.77 cm2). The upper portion of the skin was filled with PBS (0.01% sodium azide). A contact gauge of conductivity was used to confirm skin conductivity at 100 Hz. The WSP skin with a resistivity of ≥5.65 kΩ/cm2 only was used in the porcine skin penetrability test based on previous studies [53,54].
(§5) Skin penetrability test using the porcine skin. The porcine skin was punched in a circle with a 36-mm diameter puncher. Subsequently, the porcine skin, with the epidermis side upward, was set on the receiver chamber of a longitudinal diffusion cell (diffusion area: 1.77 cm2). PBS (0.01% sodium azide, pH 7.4) was added into the interior of the receiver chamber and to the upper portion of the skin via a donor chamber, and the skin was allowed to stand in the incubator at 37° C. for 30 minutes. Meanwhile, the solution of the receiver chamber was stirred gently.

[3] = test system: porcine skin
Description: as §1, §2, §3, §4, §5

[4] = test system: Fab (antihistone H1 antibody fragment; antigen KLH-SSV peptide); details: Fab 10 μg/mL in 10 mM phosphate buffer
Description: The Fab solution (10 mM phosphate buffer, pH 7.4) was mixed with CAGE (1:2) at the volume ratios of 50%/50% (v/v %), 40%/60% (v/v %), and 30%/70% (v/v %), and the mixed solutions were allowed to stand at room temperature for 1 hour. The Fab solution was prepared to obtain the final concentration of 10 μg/mL.
The solution was dialyzed with 10 mM phosphate buffer (pH 7.4) used as the dialysate at room temperature for 48 hours. The dialysate was replaced appropriately during the dialysis. At 48 hours later, the solution thus obtained was stored in a refrigerator at 4° C.
ELISA was conducted according to the method of Chiang et al. [51]. Briefly, 2 μg of KLH-SSV peptide (0.1 M sodium bicarbonate-sodium carbonate buffer, pH 9.6±0.2) were instilled into each well, and the solution was allowed to stand overnight at room temperature. After the removal of the KLH-SSV solution and the washing of each well with PBS (0.05% Tween 20®), 300 μL of SuperBlock Blocking Buffer™ in PBS were added into each well, and the solution was allowed to stand for 1 hour at room temperature. […] At 20 minutes later, SpectraMax i3™ (Molecular Devices) was used to measure absorbance at 405 nm. […]

Substance: polyoxyethylene (20) sorbitan monooleate [polysorbate 80]
- Fab deactivation-preventing effect, qualitative comparison of polysorbates [1]: needs to be at a higher concentration compared to polysorbate 40 and polysorbate 60

Substance: polyoxyethylene (20) sorbitan monostearate [polysorbate 60]
- impact on skin penetration of Fab [2]: do not adversely impact skin penetration of Fab
- skin penetration of Fab [2]: did not induce skin penetration of Fab
- skin penetration of FITC-labeled Fab ([2]; 30% CAGE + 3% polysorbate 60 versus 30% CAGE alone): Comparable skin penetration
- Fab deactivation-prevention effect (preventive effect) ([1]; 3% polysorbate, 30% CAGE (1:2), Fab 10 μg/mL): > 80%
- Fab deactivation-preventing effect, qualitative comparison of polysorbates [1]: equivalent; also recorded: more effective; also recorded: most potent

Substance: polyoxyethylene (20) sorbitan monopalmitate [polysorbate 40]
- impact on skin penetration of Fab [2]: do not adversely impact skin penetration of Fab
- skin penetration of Fab [2]: did not impact skin penetration of the Fab
- Fab deactivation-preventing effect, qualitative comparison of polysorbates [1]: prevented Fab deactivation at a lower concentration than did polysorbate 20; also recorded: equivalent; also recorded: more effective; also recorded: most potent

Substance: Choline And GEranate [CAGE (1:2)]
- penetration of Fab into skin in vitro [3]: deep penetration into skin
- skin penetration-enhancing effect of Fab [3]: most potent
- Fab deactivation, dependence on CAGE (1:2) concentration [4]: deactivated in a concentration dependent manner
- ELISA signal (absorbance of undialyzed aqueous Fab solution = 100%) ([4]; ≥5% CAGE (1:2), 1 hour room temperature, CAGE removed by dialysis): about 5%

Substance: polyoxyethylene (20) sorbitan monolaurate [polysorbate 20]
- Fab deactivation-prevention effect (preventive effect) ([1]; 3% polysorbate, 40% CAGE (1:2), Fab 10 μg/mL): about 50%
- Fab deactivation-prevention effect (preventive effect) ([1]; 5% polysorbate, 30% CAGE (1:2), Fab 10 μg/mL): ~100%
- Fab deactivation-prevention effect (preventive effect) ([1]; 8% polysorbate, 30% CAGE (1:2), Fab 10 μg/mL): ~100%
- Fab deactivation-prevention effect (preventive effect) ([1]; 10% polysorbate, 30% CAGE (1:2), compared with 5% and 8%): decreased slightly
- Fab deactivation-prevention effect (preventive effect) ([1]; 10% polysorbate, 40% CAGE (1:2), compared to 3% polysorbate 20): comparable
- Fab deactivation-prevention effect, dependence on polysorbate concentration ([1]; 40% CAGE (1:2), polysorbate above 3%): decreased with increasing polysorbate 20 concentrations
- Fab deactivation ([1]; 50% CAGE (1:2), polysorbate concentrations other than 8%): mostly deactivated
- Fab deactivation-prevention effect (preventive effect) ([1]; ≥3% (v/v) polysorbate, 30% CAGE (1:2), Fab 10 μg/mL): prevented
